Results as given in US8895585B2, “Nicotinamide derivative or salt thereof” (FUJIFILM Corporation, priority 2010, dated 2014).
pIC50: −log10 of the molar value. Like-named read-outs stand apart in the source and are kept apart here.

Biological target: T1, glutathione S-transferase (GST)-fused full-length human Syk protein (Homo sapiens, UniProt P43405)
T1 construct: (GST)-fused full-length human Syk protein; GST (glutathione S-transferase); purchased Carna Biosciences
Experiment: Syk enzyme assay
Assay type: biochemical
Method in brief: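 GST-tagged full-length human Syk (baculovirus) preincubated with compound 15 min at room temperature (pH 7.0, 10 mM MgCl2), then reacted 40 min with 0.4 μM biotinylated peptide substrate and 27 μM ATP (final). Phosphorylation read by HTRF (615/665 nm) after EDTA stop; IC50 reported.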

[1] = Syk enzyme assay, Test Example 1, read-out: IC50 of Syk-inhibitory activity
[2] = read-out: Syk-inhibitory activity (IC50)

SMILES | pIC50 [1] | pIC50 [2]
CCc1nn(CC)c2ccc(Nc3nc(N[C@H](CC(C)C)[C@H](C)N)c(F)cc3C(N)=O)cc12 [Example 006-540, 6-(((2S,3R)-2-amino-5-methylhexan-3-yl)amino)-2-((1,3-diethyl-1H-indazol-5-yl)amino)-5-fluoronicotinamide] | > 8.00 | –
CC(C)C[C@@H](Nc1nc(Nc2ccc3c(c2)c(C(C)C)nn3C)c(C(N)=O)cc1F)[C@H](C)N [Example 006-542, 6-(((2S,3R)-2-amino-5-methylhexan-3-yl)amino)-5-fluoro-2-((3-isopropyl-1-methyl-1H-indazol-5-yl)amino)nicotinamide] | > 8.00 | –
CCn1nc(C2CC2)c2cc(Nc3nc(N[C@H](CC4CC4)[C@H](C)N)c(F)cc3C(N)=O)ccc21 [Example 006-549, 6-(((2R,3S)-3-amino-1-cyclopropylbutan-2-yl)amino)-2-((3-cyclopropyl-1-ethyl-1H-indazol-5-yl)amino)-5-fluoronicotinamide] | > 8.00 | –
Cn1nc(N2CCOCC2)c2cc(Nc3nc(N[C@@H]4CCCC[C@@H]4N)c(F)cc3C(N)=O)ccc21 [Example 006-560, 6-(((1R,2S)-2-aminocyclohexyl)amino)-5-fluoro-2-((1-methyl-3-morpholino-1H-indazol-5-yl)amino)nicotinamide] | 7.30 to 8.00 | –
C[C@H](N)[C@@H](CC1CC1)Nc1nc(Nc2ccc3c(c2)c(N2CCOCC2)nn3C)c(C(N)=O)cc1F [Example 006-561, 6-(((2R,3S)-3-amino-1-cyclopropylbutan-2-yl)amino)-5-fluoro-2-((1-methyl-3-morpholino-1H-indazol-5-yl)amino)nicotinamide] | > 8.00 | –
CC(C)C[C@@H](Nc1nc(Nc2ccc3c(c2)c(N2CCOCC2)nn3C)c(C(N)=O)cc1F)[C@H](C)N [Example 006-562, 6-(((2S,3R)-2-amino-5-methylhexan-3-yl)amino)-5-fluoro-2-((1-methyl-3-morpholino-1H-indazol-5-yl)amino)nicotinamide] | > 8.00 | –
COCCOc1ncc(Nc2nc(N[C@@H]3CCCC[C@@H]3N)c(F)cc2C(N)=O)cc1N1CCOCC1 [Example 006-566, 6-(((1R,2S)-2-aminocyclohexyl)amino)-5-fluoro-2-((6-(2-methoxyethoxy)-5-morpholinopyridin-3-yl)amino)nicotinamide] | 6.00 to 7.00 | –
Cc1ncc(Nc2nc(N[C@@H]3CCCC[C@@H]3N)c(F)cc2C(N)=O)cc1Cl [Example 006-567, 6-(((1R,2S)-2-aminocyclohexyl)amino)-2-((5-chloro-6-methylpyridin-3-yl)amino)-5-fluoronicotinamide] | 7.30 to 8.00 | –
CCc1ncc(Nc2nc(N[C@@H]3CCCC[C@@H]3N)c(F)cc2C(N)=O)cc1Cl [Example 006-568, 6-(((1R,2S)-2-aminocyclohexyl)amino)-2-((5-chloro-6-ethylpyridin-3-yl)amino)-5-fluoronicotinamide] | 7.00 to 7.30 | –
NC(=O)c1cc(F)c(N[C@@H]2CCCC[C@@H]2N)nc1Nc1cnc(C2CC2)c(Cl)c1 [Example 006-569, 6-(((1R,2S)-2-aminocyclohexyl)amino)-2-((5-chloro-6-cyclopropylpyridin-3-yl)amino)-5-fluoronicotinamide] | 7.30 to 8.00 | –
CCOc1ncc(Nc2nc(N[C@@H]3CCCC[C@@H]3N)c(F)cc2C(N)=O)cc1Cl [Example 006-570, 6-(((1R,2S)-2-aminocyclohexyl)amino)-2-((5-chloro-6-ethoxypyridin-3-yl)amino)-5-fluoronicotinamide] | 7.30 to 8.00 | –
COCCOc1ncc(Nc2nc(N[C@@H]3CCCC[C@@H]3N)c(F)cc2C(N)=O)cc1Cl [Example 006-571, 6-(((1R,2S)-2-aminocyclohexyl)amino)-2-((5-chloro-6-(2-methoxyethoxy)pyridin-3-yl)amino)-5-fluoronicotinamide] | 7.00 to 7.30 | –
CCOc1ncc(Nc2nc(N[C@@H]3CCCC[C@@H]3N)c(F)cc2C(N)=O)cc1C1CC1 [Example 006-573, 6-(((1R,2S)-2-aminocyclohexyl)amino)-2-((5-cyclopropyl-6-ethoxypyridin-3-yl)amino)-5-fluoronicotinamide] | 7.30 to 8.00 | –
COCCOc1ncc(Nc2nc(N[C@@H]3CCCC[C@@H]3N)c(F)cc2C(N)=O)cc1C1CC1 [Example 006-574, 6-(((1R,2S)-2-aminocyclohexyl)amino)-2-((5-cyclopropyl-6-(2-methoxyethoxy)pyridin-3-yl)amino)-5-fluoronicotinamide] | 7.30 to 8.00 | –
Cc1nn(C)c2ccc(Nc3nc(N[C@H](C4CC4)[C@H](C)N)c(F)cc3C(N)=O)cc12 [Example 006-582, 6-(((1R,2S)-2-amino-1-cyclopropylpropyl)amino)-2-((1,3-dimethyl-1H-indazol-5-yl)amino)-5-fluoronicotinamide] | > 8.00 | –
Cn1nc(-n2cccn2)c2cc(Nc3nc(N[C@@H]4CCCC[C@@H]4N)c(F)cc3C(N)=O)ccc21 [Example 006-594, 6-(((1R,2S)-2-aminocyclohexyl)amino)-5-fluoro-2-((1-methyl-3-(1H-pyrazol-1-yl)-1H-indazol-5-yl)amino)nicotinamide] | > 8.00 | –
CC(C)C[C@@H](Nc1nc(Nc2ccc3c(c2)c(-n2cccn2)nn3C)c(C(N)=O)cc1F)[C@H](C)N [Example 006-595, 6-(((2S,3R)-2-amino-5-methylhexan-3-yl)amino)-5-fluoro-2-((1-methyl-3-(1H-pyrazol-1-yl)-1H-indazol-5-yl)amino)nicotinamide] | > 8.00 | –
Cc1cc(C)cc(Nc2nc(NCCN)c(F)cc2C(N)=O)c1 [Example 8-2, 6-((2-aminoethyl)amino)-2-((3,5-dimethylphenyl)amino)-5-fluoro-nicotinamide] | – | ≥ 6.00
Cc1cc(C)cc(Nc2nc(NCCN)c(F)cc2C(N)=O)c1 [Example 008-002] | 7.30 to 8.00 | –
Cc1ccccc1Nc1nc(NCCN)c(F)cc1C(N)=O [Example 008-003] | 6.00 to 7.00 | –
NC(=O)c1cc(F)c(NC2CCCCC2N)nc1Nc1cnc2ccccc2c1 (stereo not shown) [Example 008-004] | > 8.00 | –
NC(=O)c1cc(F)c(NC2CCCCC2N)nc1Nc1cccc(Cl)c1 (stereo not shown) [Example 008-008] | > 8.00 | –
NC(=O)c1cc(F)c(N[C@H](Cc2ccccc2)C(N)=O)nc1Nc1cnc2ccccc2c1 [Example 12-25] | – | ≥ 6.00
NC(=O)c1cc(F)c(NCc2cnn[nH]2)nc1Nc1ccc2ncccc2c1 [Example 12-27, 5-fluoro-2-(quinolin-6-ylamino)-6-(((1H-1,2,3-triazol-5-yl)methyl)amino)nicotinamide] | – | ≥ 6.00
NC(=O)c1cc(F)c(NCc2ncc[nH]2)nc1Nc1ccc2ncccc2c1 [Example 12-28, 5-fluoro-6-(((1H-imidazol-2-yl)methyl)amino)-2-(quinolin-6-ylamino)nicotinamide] | – | ≥ 6.00

Results, then the compound that gave them:

pIC50 [1] | pIC50 [2] | SMILES
6.00 to 7.00 | – | NC(=O)c1cc(F)c(NCc2ccc[nH]2)nc1Nc1ccc2ncccc2c1 [Example 012-003]
7.30 to 8.00 | – | NC(=O)c1cc(F)c(N[C@@H](C(N)=O)c2ccccc2)nc1Nc1ccc2ncsc2c1 [Example 012-004]
7.30 to 8.00 | – | NC(=O)c1cc(F)c(NC(Cc2ccccc2)C(N)=O)nc1Nc1ccc2ncsc2c1 (stereo not shown) [Example 012-006]
7.30 to 8.00 | – | NC(=O)c1cc(F)c(N[C@H](Cc2ccccc2)C(N)=O)nc1Nc1ccc2ncccc2c1 [Example 012-012]
6.00 to 7.00 | – | NC(=O)c1cc(F)c(NCCc2cnc[nH]2)nc1Nc1ccc2ncccc2c1 [Example 012-014]
7.00 to 7.30 | – | NC(=O)c1cc(F)c(NCc2cnc[nH]2)nc1Nc1ccc2ncccc2c1 [Example 012-015]
6.00 to 7.00 | – | NC(=O)c1cc(F)c(NCc2ccccn2)nc1Nc1ccc2ncccc2c1 [Example 012-016]
6.00 to 7.00 | – | NC(=O)c1cc(F)c(NCc2cccnc2)nc1Nc1ccc2ncccc2c1 [Example 012-017]
6.00 to 7.00 | – | NC(=O)c1cc(F)c(NCc2ccncc2)nc1Nc1ccc2ncccc2c1 [Example 012-018]
7.00 to 7.30 | – | NC(=O)CNc1nc(Nc2ccc3ncccc3c2)c(C(N)=O)cc1F [Example 012-019]
6.00 to 7.00 | – | NC(=O)c1cc(F)c(NCc2cnc[nH]2)nc1Nc1cnc2ccccc2c1 [Example 012-020]
> 8.00 | – | NC(=O)c1cc(F)c(NCCO)nc1Nc1ccc2ncccc2c1 [Example 012-021]
6.00 to 7.00 | – | CNc1nc(Nc2ccc3ncccc3c2)c(C(N)=O)cc1F [Example 012-022]
6.00 to 7.00 | – | NC(=O)c1cc(F)c(N[C@@H](CO)Cc2ccccc2)nc1Nc1ccc2ncccc2c1 [Example 012-023]
6.00 to 7.00 | – | NC(=O)c1cc(F)c(N[C@@H](CO)c2ccccc2)nc1Nc1ccc2ncccc2c1 [Example 012-024]
7.30 to 8.00 | – | NC(=O)c1cc(F)c(N[C@H](Cc2ccccc2)C(N)=O)nc1Nc1cnc2ccccc2c1 [Example 012-025]
6.00 to 7.00 | – | CC(C)C[C@@H](Nc1nc(Nc2ccc3ncccc3c2)c(C(N)=O)cc1F)c1nnn[nH]1 [Example 012-026]
7.00 to 7.30 | – | NC(=O)c1cc(F)c(NCc2cnn[nH]2)nc1Nc1ccc2ncccc2c1 [Example 012-027]
6.00 to 7.00 | – | NC(=O)c1cc(F)c(NCc2ncc[nH]2)nc1Nc1ccc2ncccc2c1 [Example 012-028]
6.00 to 7.00 | – | NC(=O)c1cc(F)c(N[C@H](Cc2ccccc2)c2ncc[nH]2)nc1Nc1ccc2ncccc2c1 [Example 012-029]
6.00 to 7.00 | – | CC(C)C[C@@H](Nc1nc(Nc2ccc3ncccc3c2)c(C(N)=O)cc1F)c1ncc[nH]1 [Example 012-030]
7.00 to 7.30 | – | CC(C)[C@@H](Nc1nc(Nc2ccc3ncccc3c2)c(C(N)=O)cc1F)C(N)=O [Example 012-032]
7.30 to 8.00 | – | NC(=O)c1cc(F)c(NC(Cc2ccc(F)cc2)C(N)=O)nc1Nc1ccc2ncccc2c1 (stereo not shown) [Example 012-033]
6.00 to 7.00 | – | COc1ccc(C[C@@H](Nc2nc(Nc3ccc4ncccc4c3)c(C(N)=O)cc2F)C(N)=O)cc1 [Example 012-034]
